Laboratory results: patent US10760110B2, “Antibiotic testing and screening system” (priority 2017, dated 2020)
Converted amounts (≈) assume the structure as drawn. Read-outs that look alike come from different tables or passages of the source.

How the values were obtained:
Details in all cases: Klebsiella pneumoniae
[1] = tested on: K. pneumoniae NVT1001 and its ΔompK35/36 and/or ΔramR mutants; assay: Etest MIC, OmpK35/36 loss and AcrAB-TolC overexpression (ΔramR) strains (Table 6); format: cell-based, Klebsiella pneumoniae
Procedure, shortened: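 Etest MICs against K. pneumoniae NVT1001 and its ΔompK35/36 and/or ΔramR mutants, rounded up to the next two-fold value. For NVT1001 carrying pACYC177-blaOXA-48, ceftazidime and cefotaxime MICs by CLSI broth microdilution, interpreted with CLSI 2017 breakpoints.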

[2] = tested on: K. pneumoniae NVT1001 ΔramRΔompK35/36 mutant and its revertants; assay: Etest MIC, ΔramRΔompK35/36 mutant and its revertants (Table 7); format: cell-based
[3] = tested on: K. pneumoniae NVT1001 strains with carbapenemase plasmids; assay: Etest MIC of β-lactams, OmpK35/36 loss, ΔramR and/or carbapenemase (Table 9); format: cell-based, Klebsiella pneumoniae
Procedure, shortened: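 Cloned resistance genes in pACYC177 or pACYC184 were electroporated into K. pneumoniae NVT1001. MICs were determined by Etest and rounded up to the next two-fold value. Ceftazidime and cefotaxime against the blaOXA-48 construct were also tested by CLSI broth microdilution, with breakpoints from CLSI 2017 (cephalothin CLSI 2015, moxifloxacin EUCAST 2017).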

`C[C@@H](O)[C@H]1C(=O)N2C(C(=O)O)=C(S[C@@H]3CN[C@H](C(=O)N(C)C)C3)[C@H](C)[C@H]12` [Meropenem] showed an MIC ([1]; WT, NVT1001, read-out: MIC) of 0.06 µg/mL (≈ 0.156 µM), an MIC ([1]; Δ35, ΔompK35 mutant) of 0.06 µg/mL (≈ 0.156 µM) and an MIC ([1]; Δ35/36, ΔompK35/36 mutant) of 0.5 µg/mL (≈ 1.3 µM). For the same compound, the MIC ([1]; Δ36, ΔompK36 mutant) was 0.06 µg/mL (≈ 0.156 µM), the MIC ([1]; ΔramR mutant) was 0.06 µg/mL (≈ 0.156 µM) and the MIC ([1]; ΔramRΔ35, ΔramRΔompK35 mutant) was 0.06 µg/mL (≈ 0.156 µM). For the same compound, the MIC ([1]; ΔramRΔ35/36, ΔramRΔompK35/36 mutant) was 2 µg/mL (≈ 5.22 µM), the MIC ([1]; ΔramRΔ36, ΔramRΔompK36 mutant) was 2 µg/mL (≈ 5.22 µM) and the MIC ([2]; ΔramRΔompK35/36::ompK35/36 revertant) was 0.06 µg/mL. It also gave an MIC ([2]; ΔramRΔompK35/36::ompK35 revertant) of 2 µg/mL, an MIC ([2]; ΔramRΔompK35/36::ompK36 revertant) of 0.06 µg/mL and an MIC ([2]; ΔramRΔompK35/36::ramR revertant) of 0.5 µg/mL. For the same compound, the MIC ([2]; ΔramRΔompK35/36::ramR::ompK35/36 revertant) was 0.125 µg/mL, the MIC ([2]; ΔramRΔompK35/36::ramR::ompK35 revertant) was 0.125 µg/mL and the MIC ([2]; ΔramRΔompK35/36::ramR::ompK36 revertant) was 0.125 µg/mL. The MIC ([2]; ΔramRΔompK35/36 mutant) was 2 µg/mL, the MIC ([3]; IMP-8 on pACYC177, WT (NVT1001), read-out: MIC) was 2 µg/mL and the MIC ([3]; IMP-8 on pACYC177, Δ35 (ΔompK35 mutant)) was 1 µg/mL. For the same compound, the MIC ([3]; IMP-8 on pACYC177, Δ35/36 (ΔompK35/36 mutant)) was over 32 µg/mL, the MIC ([3]; IMP-8 on pACYC177, Δ36 (ΔompK36 mutant)) was 2 µg/mL and the MIC ([3]; IMP-8 on pACYC177, ΔramR mutant) was 2 µg/mL. It also gave an MIC ([3]; IMP-8 on pACYC177, ΔramRΔ35 (ΔramRΔompK35 mutant)) of 2 µg/mL, an MIC ([3]; IMP-8 on pACYC177, ΔramRΔ35/36 (ΔramRΔompK35/36 mutant)) of over 32 µg/mL and an MIC ([3]; IMP-8 on pACYC177, ΔramRΔ36 (ΔramRΔompK36 mutant)) of over 32 µg/mL. For the same compound, the MIC ([3]; KPC-2 on pACYC177, WT (NVT1001), read-out: MIC) was 32 µg/mL, the MIC ([3]; KPC-2 on pACYC177, Δ35 (ΔompK35 mutant)) was over 32 µg/mL and the MIC ([3]; KPC-2 on pACYC177, Δ35/36 (ΔompK35/36 mutant)) was over 32 µg/mL. It also gave an MIC ([3]; KPC-2 on pACYC177, Δ36 (ΔompK36 mutant)) of over 32 µg/mL, an MIC ([3]; KPC-2 on pACYC177, ΔramR mutant) of 32 µg/mL and an MIC ([3]; KPC-2 on pACYC177, ΔramRΔ35 (ΔramRΔompK35 mutant)) of over 32 µg/mL. For the same compound, the MIC ([3]; KPC-2 on pACYC177, ΔramRΔ35/36 (ΔramRΔompK35/36 mutant)) was over 32 µg/mL, the MIC ([3]; KPC-2 on pACYC177, ΔramRΔ36 (ΔramRΔompK36 mutant)) was over 32 µg/mL and the MIC ([3]; KPC-3 on pACYC177, WT (NVT1001), read-out: MIC) was 16 µg/mL. The MIC ([3]; KPC-3 on pACYC177, Δ35 (ΔompK35 mutant)) was 32 µg/mL, the MIC ([3]; KPC-3 on pACYC177, Δ35/36 (ΔompK35/36 mutant)) was over 32 µg/mL and the MIC ([3]; KPC-3 on pACYC177, Δ36 (ΔompK36 mutant)) was over 32 µg/mL. The MIC ([3]; KPC-3 on pACYC177, ΔramR mutant) was 32 µg/mL, the MIC ([3]; KPC-3 on pACYC177, ΔramRΔ35 (ΔramRΔompK35 mutant)) was over 32 µg/mL and the MIC ([3]; KPC-3 on pACYC177, ΔramRΔ35/36 (ΔramRΔompK35/36 mutant)) was over 32 µg/mL. It also gave an MIC ([3]; KPC-3 on pACYC177, ΔramRΔ36 (ΔramRΔompK36 mutant)) of over 32 µg/mL, an MIC ([3]; NDM-1 on pACYC177, WT (NVT1001), read-out: MIC) of 32 µg/mL and an MIC ([3]; NDM-1 on pACYC177, Δ35 (ΔompK35 mutant)) of 32 µg/mL. For the same compound, the MIC ([3]; NDM-1 on pACYC177, Δ35/36 (ΔompK35/36 mutant)) was over 32 µg/mL, the MIC ([3]; NDM-1 on pACYC177, Δ36 (ΔompK36 mutant)) was over 32 µg/mL and the MIC ([3]; NDM-1 on pACYC177, ΔramR mutant) was 32 µg/mL. It also gave an MIC ([3]; NDM-1 on pACYC177, ΔramRΔ35 (ΔramRΔompK35 mutant)) of 32 µg/mL, an MIC ([3]; NDM-1 on pACYC177, ΔramRΔ35/36 (ΔramRΔompK35/36 mutant)) of over 32 µg/mL and an MIC ([3]; NDM-1 on pACYC177, ΔramRΔ36 (ΔramRΔompK36 mutant)) of over 32 µg/mL. For the same compound, the MIC ([3]; OXA-48 on pACYC177, WT (NVT1001), read-out: MIC) was 2 µg/mL, the MIC ([3]; OXA-48 on pACYC177, Δ35 (ΔompK35 mutant)) was 2 µg/mL and the MIC ([3]; OXA-48 on pACYC177, Δ35/36 (ΔompK35/36 mutant)) was over 32 µg/mL. For the same compound, the MIC ([3]; OXA-48 on pACYC177, Δ36 (ΔompK36 mutant)) was 8 µg/mL, the MIC ([3]; OXA-48 on pACYC177, ΔramR mutant) was 2 µg/mL and the MIC ([3]; OXA-48 on pACYC177, ΔramRΔ35 (ΔramRΔompK35 mutant)) was 2 µg/mL. For the same compound, the MIC ([3]; OXA-48 on pACYC177, ΔramRΔ35/36 (ΔramRΔompK35/36 mutant)) was over 32 µg/mL, the MIC ([3]; OXA-48 on pACYC177, ΔramRΔ36 (ΔramRΔompK36 mutant)) was over 32 µg/mL and the MIC ([3]; VIM-1 on pACYC177, WT (NVT1001), read-out: MIC) was 16 µg/mL. The MIC ([3]; VIM-1 on pACYC177, Δ35 (ΔompK35 mutant)) was over 32 µg/mL, the MIC ([3]; VIM-1 on pACYC177, Δ35/36 (ΔompK35/36 mutant)) was over 32 µg/mL and the MIC ([3]; VIM-1 on pACYC177, Δ36 (ΔompK36 mutant)) was over 32 µg/mL. It also gave an MIC ([3]; VIM-1 on pACYC177, ΔramR mutant) of over 32 µg/mL, an MIC ([3]; VIM-1 on pACYC177, ΔramRΔ35 (ΔramRΔompK35 mutant)) of 32 µg/mL and an MIC ([3]; VIM-1 on pACYC177, ΔramRΔ35/36 (ΔramRΔompK35/36 mutant)) of over 32 µg/mL. The MIC ([3]; VIM-1 on pACYC177, ΔramRΔ36 (ΔramRΔompK36 mutant)) was over 32 µg/mL, the MIC ([3]; no supplemental plasmid, WT (NVT1001), read-out: MIC) was 0.06 µg/mL and the MIC ([3]; no supplemental plasmid, Δ35 (ΔompK35 mutant)) was 0.06 µg/mL. It also gave an MIC ([3]; no supplemental plasmid, Δ35/36 (ΔompK35/36 mutant)) of 0.5 µg/mL, an MIC ([3]; no supplemental plasmid, Δ36 (ΔompK36 mutant)) of 0.06 µg/mL and an MIC ([3]; no supplemental plasmid, ΔramR mutant) of 0.06 µg/mL. It also gave an MIC ([3]; no supplemental plasmid, ΔramRΔ35 (ΔramRΔompK35 mutant)) of 0.06 µg/mL, an MIC ([3]; no supplemental plasmid, ΔramRΔ35/36 (ΔramRΔompK35/36 mutant)) of 2 µg/mL and an MIC ([3]; no supplemental plasmid, ΔramRΔ36 (ΔramRΔompK36 mutant)) of 2 µg/mL.
